Target: T1, human V1a receptor (Homo sapiens, UniProt P37288)
T1 construct: expressed in transfected cells; host or cells: HEK293 cells, transiently transfected; cell membranes
Test: human V1a receptor binding studies (3H-Vasopressin SPA, HEK293 cell membranes)
Details: competition with 3H-Vasopressin on membranes of HEK293 cells transiently transfected with human V1a receptor; Ki by Cheng-Prussoff equation; read-out: pKi (hV1a) (converted)
Description: The human V1a receptor was cloned by RT-PCR from total human liver RNA. The coding sequence was subcloned in an expression vector after sequencing to confirm the identity of the amplified sequence. […] Cell membranes were prepared from HEK293 cells transiently transfected with the expression vector and grown in 20 liter fermenters with the following protocol.
50 g of cells are re-suspended in 30 ml freshly prepared ice cold Lysis buffer (50 mM HEPES, 1 mM EDTA, 10 mM MgCl2 adjusted to pH= 7.4 + complete cocktail of protease inhibitor (Roche Diagnostics)). Homogenized with Polytron for Imin and sonicated on ice for 2x 2 minutes at 80% intensity (Vibracell sonicator). The preparation is centrifuged 20 min at 500 g at 4° C., the pellet is discarded and the supernatant centrifuged 1 hour at 43 ′000g at 4° C. (19 ′000rpm). The pellet is re-suspended in 12.5 ml Lysis buffer+12.5 ml Sucrose 20% and homogenized using a Polytron for 1-2 min. The protein concentration is determined by the Bradford method and aliquots are stored at -80° C. until use. For binding studies 60 mg Yttrium silicate SPA beads (Amersham) are mixed with an aliquot of membrane in binding buffer (50 mM Tris, 120 mM NaCl, 5 mM KCl, 2 mM CaCl2, 10 mM MgCl2) for 15 minutes with mixing. 50 µl of bead/membrane mixture is then added to each well of a 96 well plate, followed by 50 µl of 4 nM 3H-Vasopressin (American Radiolabeled Chemicals). For total binding measurement 100 µl of binding buffer are added to the respective wells, for non-specific binding 100 µl of 8.4 mM cold vasopressin and for compound testing 100 µl of a serial dilution of each compound in 2% DMSO. The plate is incubated 1 h at room temperature, centrifuged 1 min at 1000 g and counted on a Packard Top-Count. Non-specific binding counts are subtracted from each well and data is normalized to the maximum specific binding set at 100%. To calculate an IC50 the curve is fitted using a non-linear regression model (XLfit) and the Ki is calculated using the Cheng-Prussoff equation.

T1 sequence (P37288 whole entry): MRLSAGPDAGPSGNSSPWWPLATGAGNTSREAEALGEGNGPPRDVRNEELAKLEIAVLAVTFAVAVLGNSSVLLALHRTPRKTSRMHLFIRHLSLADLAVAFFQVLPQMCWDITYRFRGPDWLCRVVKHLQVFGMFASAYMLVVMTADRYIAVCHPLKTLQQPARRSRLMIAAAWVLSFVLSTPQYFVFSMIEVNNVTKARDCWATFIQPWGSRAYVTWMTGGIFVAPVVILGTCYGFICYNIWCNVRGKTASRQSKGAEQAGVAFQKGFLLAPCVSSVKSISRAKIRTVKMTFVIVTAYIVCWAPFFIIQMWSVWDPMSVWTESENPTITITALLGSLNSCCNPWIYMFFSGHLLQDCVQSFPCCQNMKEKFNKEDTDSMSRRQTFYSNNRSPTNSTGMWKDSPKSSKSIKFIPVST

Ki [nM]	SMILES
3.39	Cc1ccc(-n2c(C)nnc2[C@H]2CC[C@H](Oc3ccc(C)nc3)CC2)cc1 [Example 65, transMethyl-5-[4-[5-methyl-4-(4-methylphenyl)-1,2,4-triazol-3-yl]cyclohexyl]oxypyridine]
0.631	COCc1nnc([C@H]2CC[C@H](Oc3ccccn3)CC2)n1-c1ccc(Cl)cc1 [Example 35, trans(4-(4-(4-Chlorophenyl)-5-(methoxymethyl)-4H-1,2,4-triazol-3-yl)cyclohexyloxy)pyridine]
5.25	Cc1nnc([C@H]2CC[C@H](Oc3ccccn3)CC2)n1-c1ccccc1 [Example 5, trans((4-(5-Methyl-4-phenyl-4H-1,2,4-triazol-3-yl)cyclohexyl)oxy)pyridine]
0.195	Cc1nnc([C@H]2CC[C@H](Oc3ccccn3)CC2)n1-c1ccc(Br)cc1 [Example 9, trans((4-(4-(4-Bromophenyl)-5-methyl-4H-1,2,4-triazol-3-yl)cyclohexyl)oxy)pyridine]

Reference: patent US20230202990A1, “CYCLOHEXYL SUBSTITUTED TRIAZOLES” (Hoffmann-La Roche Inc., priority 2020, published 2023)
